Experiments:
MDA-MB-231 [1] = details: 72 h
Method: (§1)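 Drug sensitivity and resistance testing (DSRT) of breast cancer cell lines in 384-well plates, 5 concentrations in 10-fold dilutions over a compound-specific 10,000-fold range. After 72 h, cytotoxicity was read by CellTox Green fluorescence and viability by CellTiter-Glo luminescence (multiplexed), normalised to DMSO and benzethonium chloride controls. EC50 is the inflection point of the fitted dose-response curve (bottom asymptote free, so it can be relative for partial curves) and is censored at the highest tested concentration. Rows with DSS 0 (no meaningful response) were excluded.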

CAL-51 [2] = details: 72 h
Method: as §1

DU-4475 [3] = details: 72 h
In short: (§2)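 The reported EC50 was fitted from percent-inhibition dose-response curves and censored at the highest concentration. Breast cancer cell lines (20 µl suspension) were added to 384-well plates containing compound in 5 µl medium and incubated 72 h, and viability was read with 2.5 µl CellTiter-Blue over 2 h at 37 °C at 560/590 nm. Each plate was normalised to vehicle and a positive kill control and checked by Z'-factor, and rows with zero drug sensitivity score were dropped.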

HDQ-P1 [4] = details: 72 h
In short: as §2

CAL-51 [5] = details: 72 h; remark: listed apart in the source
In short: as §2

MDA-MB-453 [6] = details: 72 h
In short: as §2

CAL-148 [7] = details: 72 h
In short: as §2

CAL-85-1 [8] = details: 72 h
In short: as §2

MDA-MB-436 = experiment: normalised response (% of control), CellTiter-Glo; higher = more viable cells (100 = DMSO, 0 = benzethonium chloride kill control); details: incubation time: 72 h
Method: (§3)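 DSRT, 72 h incubation, CellTox Green / CellTiter-Glo readout. Signal is normalised to DMSO and benzethonium chloride controls. Value is the normalised response at the highest dose.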

MDA-MB-231 [9] = experiment: as above; details: incubation time: 72 h
Method: as §3

BT-474 = experiment: as above; details: incubation time: 72 h
Method: as §3

DU-4475 [10] = experiment: as above; details: incubation time: 72 h
Method: as §3

HDQ-P1 [11] = experiment: as above; details: incubation time: 72 h
Method: as §3

Hs578T = experiment: as above; details: incubation time: 72 h
Method: as §3

MDA-MB-453 [12] = experiment: as above; details: incubation time: 72 h
Method: as §3

CAL-85-1 [13] = experiment: as above; details: incubation time: 72 h
Method: as §3

DU-4475 [14] = experiment: normalised viability (% of control), CellTiter-Blue; higher = more viable cells (about 100 = DMSO control); details: incubation time: 72 h
In short: (§4)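 Normalised viability is given for a single listed concentration of the series. In 384-well plates, breast cancer cell lines were incubated 72 h with compound, then read with CellTiter-Blue (2 h, 37 °C) at 560/590 nm. Per-plate scaling set vehicle to 100 and a positive kill control to 0, with Z'-factor quality control.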

HDQ-P1 [15] = experiment: as above; details: incubation time: 72 h
In short: as §4

CAL-51 [16] = experiment: as above; details: incubation time: 72 h
In short: as §4

MDA-MB-453 [17] = experiment: as above; details: incubation time: 72 h
In short: as §4

CAL-148 [18] = experiment: as above; details: incubation time: 72 h
In short: as §4

CAL-85-1 [19] = experiment: as above; details: incubation time: 72 h
In short: as §4

| SMILES | EC50, CellTox Green (MDA-MB-231 [1]) [nM] | EC50, CellTox Green (CAL-51 [2]) [nM] | EC50, CellTiter-Blue viability (DU-4475 [3]) [nM] | EC50, CellTiter-Blue viability (CAL-51 [5]) [nM] | EC50, CellTiter-Blue viability (MDA-MB-453 [6]) [nM] | EC50, CellTiter-Blue viability (CAL-85-1 [8]) [nM] | normalised response (MDA-MB-436) [%] | normalised response (MDA-MB-231 [9]) [%] | normalised response (BT-474) [%] | normalised response (DU-4475 [10]) [%] | normalised response (HDQ-P1 [11]) [%] | normalised response (Hs578T) [%] | normalised response (MDA-MB-453 [12]) [%] | normalised response (CAL-85-1 [13]) [%] | normalised viability (DU-4475 [14]) [%] | normalised viability (HDQ-P1 [15]) [%] | normalised viability (CAL-51 [16]) [%] | normalised viability (MDA-MB-453 [17]) [%] | normalised viability (CAL-148 [18]) [%] | normalised viability (CAL-85-1 [19]) [%] | also measured |
| --- | --- | --- | --- | --- | --- | --- | --- | --- | --- | --- | --- | --- | --- | --- | --- | --- | --- | --- | --- | --- | --- |
| COc1ncc(-c2ccc3nccc(-c4ccnnc4)c3c2)cc1NS(=O)(=O)c1ccc(F)cc1F | 157 | 91.7 | 113 | 12.6 | 5.38 | 27.2 |  |  |  |  |  |  |  |  |  |  |  |  |  |  | EC50, CellTiter-Blue viability (HDQ-P1 [4]): 6.71 nM; EC50, CellTiter-Blue viability (CAL-148 [7]): 27.6 nM |
| CS(=O)(=O)CCNCc1ccc(-c2ccc3ncnc(Nc4ccc(OCc5cccc(F)c5)c(Cl)c4)c3c2)o1 [Lapatinib] |  |  |  |  | 75.1 | 3740 |  |  |  |  |  |  |  |  |  |  |  |  |  |  |  |
| Cn1c(=O)c(F)c(Nc2ccc(I)cc2F)c2c(=O)n(C[C@@H](O)CO)cnc21 [TAK-733] | 54.6 |  | 3.59 | 102 | 249 | 68.5 |  |  |  |  |  |  |  |  |  |  |  |  |  |  | EC50, CellTiter-Blue viability (HDQ-P1 [4]): 161 nM |
| O=c1[nH]c(=O)n([C@H]2C[C@H](O)[C@@H](CO)O2)cc1F [Floxuridine] |  | 734 |  | 46.9 | 5880 | 66.3 |  |  |  |  |  |  |  |  |  |  |  |  |  |  | EC50, CellTiter-Blue viability (CAL-148 [7]): 19.8 nM |
| CN(c1ccccc1CNc1nc(Nc2ccc3c(c2)CC(=O)N3)ncc1C(F)(F)F)S(C)(=O)=O | 1820 | 201 |  |  |  |  |  |  |  |  |  |  |  |  |  |  |  |  |  |  |  |
| COc1ccc(C2=N[C@@H](c3ccc(Cl)cc3)[C@@H](c3ccc(Cl)cc3)N2C(=O)N2CCNC(=O)C2)c(OC(C)C)c1 [Nutlin-3] |  | 252 | 6310 | 2750 |  |  |  |  |  |  |  |  |  |  |  |  |  |  |  |  |  |
| CCOc1cc2ncc(C#N)c(Nc3ccc(OCc4ccccn4)c(Cl)c3)c2cc1NC(=O)/C=C/CN(C)C [Neratinib] |  |  |  |  | 12.5 |  |  |  |  |  |  |  |  |  |  |  |  |  |  |  |  |
| COc1cccc2c1C(=O)c1c(O)c3c(c(O)c1C2=O)C[C@@](O)(C(C)=O)C[C@@H]3O[C@H]1C[C@H](N)[C@H](O)[C@H](C)O1 [Daunorubicin] |  | 183 | 56.4 | 59 | 465 | 290 |  |  |  |  |  |  |  |  |  |  |  |  |  |  | EC50, CellTiter-Blue viability (HDQ-P1 [4]): 338 nM; EC50, CellTiter-Blue viability (CAL-148 [7]): 66.1 nM |
| Cc1cc(C(C)Nc2ccccc2)c2nc(N3CCOCC3)cc(=O)n2c1 (centres undefined) [TGX-221] | > 10000 |  |  |  |  |  |  |  |  |  |  |  |  |  |  |  |  |  |  |  |  |
| CC(C)C[C@H](NC(=O)[C@H](Cc1ccccc1)NC(=O)c1cnccn1)B(O)O [Bortezomib] | 13.9 | 27.5 | 18.6 | 38.9 | 6.36 | 7.76 |  |  |  |  |  |  |  |  |  |  |  |  |  |  | EC50, CellTiter-Blue viability (HDQ-P1 [4]): 5.29 nM; EC50, CellTiter-Blue viability (CAL-148 [7]): 24.7 nM |
| O=C(c1ccc(OCCN2CCCCC2)cc1)c1c(-c2ccc(O)cc2)sc2cc(O)ccc12 [Raloxifene] |  |  |  |  | 9230 |  |  |  |  |  |  |  |  |  |  |  |  |  |  |  |  |
| CC(=O)O[C@H]1C(=O)[C@@]2(C)[C@H]([C@H](OC(=O)c3ccccc3)[C@]3(O)C[C@H](OC(=O)[C@H](O)[C@@H](NC(=O)c4ccccc4)c4ccccc4)C(C)=C1C3(C)C)[C@]1(OC(C)=O)CO[C@@H]1C[C@@H]2O [Paclitaxel] (1000 nM) |  |  |  |  |  |  | 27 | 25.3 | 29.5 | 34.8 | 61.2 | 9.73 | 51.5 | 20.4 | 1.41 | 32.7 | 10.7 | 21 | 14.7 | 33.1 |  |
| C#Cc1cccc(Nc2ncnc3cc(OC)c(OCCCCCCC(=O)NO)cc23)c1 [CUDC-101] (10000 nM) |  |  |  |  |  |  | 33.5 | 2.74 | 8.24 | 5.82 | 33.4 | 6.2 | 4.64 | 1.02 | 1.42 | 19.3 | 18.1 | 0.71 | 0.77 | 1.33 |  |
| COc1ncc(-c2ccc3nccc(-c4ccnnc4)c3c2)cc1NS(=O)(=O)c1ccc(F)cc1F (1000 nM) |  |  |  |  |  |  | 39.4 | 33.7 | 43 | 9.21 | 12.8 | 16.1 | 7.5 | 21 | 10.2 | 14.4 | 3.63 | 5.04 | 2.42 | 18.6 |  |
| CC(C)(C)c1cc(NC(=O)Nc2ccc(-c3cn4c(n3)sc3cc(OCCN5CCOCC5)ccc34)cc2)no1 [Quizartinib] (1000 nM) |  |  |  |  |  |  | 109 | 113 | 101 | 105 | 103 | 92.6 | 97 | 106 | 112 | 111 | 103 | 60.2 | 91.3 | 89.6 |  |
| CCS(=O)(=O)c1cccc(-c2cc(C(=O)NC3CCN(C)CC3)c(C)c3[nH]c4ncc(C)cc4c23)c1 [TAK-901] (1000 nM) |  |  |  |  |  |  | 57 | 23 | 31.6 | 84.9 | 39.4 | 75.2 | 104 | 73.4 | 41.2 | 16.6 | 23.8 | 40.2 | 105 | 30.9 |  |

Source: the supplement of paper PMC4862054
